Like-named read-outs stand apart in the source and are kept apart here.
Columns and labels:
Assay type in all cases: physicochemical
[1] = Fluidity detection: angle of repose by fixed cone bottom method; details: average of three, <30° fluidity better, >40° poor
Text: Measurement of angle of repose: a fixed cone bottom method was used, the funnel was fixed on a horizontal coordinate paper at a proper height, so that the distance from a lower opening of the funnel to the coordinate paper was H, the powder was carefully poured into the funnel until the tip of a cone formed below the funnel contacted an outlet of the funnel, the radius r of the cone can be measured by the coordinate paper, and measured three times continuously, and the average value was taken as the result. The angle of repose a was calculated as follows: […]
Judgment standard: when the angle of repose is <30°, the fluidity is better. When the angle of repose is >40°, the fluidity is poor.

[2] = Hygroscopicity analysis (weight gain, Chinese Pharmacopoeia 2020 guideline 9103); details: 25° C.±1° C., 24 hours; for Weight Gain: constant humidity
Procedure: 1) a dry glass weighing bottle with a plug (with an outer diameter of 50 mm and a height of 15 mm) was taken and placed in a proper constant-temperature dryer (the lower part was placed with ammonium chloride or ammonium sulfate saturated solution) at 25° C.±1° C. one day before the test; and the weight of the weighing bottle was precisely measured (m 1).
2) a proper amount of the test sample was taken, tiled in the weighing bottle, wherein the thickness of the test sample was about 1 mm, and the weight of the test sample was precisely measured (m 2). 3) the weighing bottle was opened, and placed with its bottle cap under the constant temperature and humidity conditions for 24 hours.
4) the bottle cap was covered well and the weight of […] was precisely measured (m 3).
According to 9103 guideline principle on drug hygroscopicity test in four part of Chinese Pharmacopoeia 2020 edition, the description of hygroscopicity characteristics and the definition of hygroscopicity weight gain are as follows:
Deliquescence: enough water is absorb to form liquid.
Extremely hygroscopic: the weight gain due to hygroscopicity is not less than 15%.
Hygroscopic: the weight gain due to hygroscopicity is less than 15% but not less than 2%.
Slightly hygroscopic: the weight gain due to hygroscopicity is less than 2% but not less than 0.2%.
No or almost no hygroscopicity: the weight gain due to hygroscopicity is less than 0.2%.

[3] = Solubility analysis in water and media of different pH, HPLC; details: for solubility thermodynamic: thermodynamic from solid, read-out: Concentration
Procedure: The excessive test sample was put into a dissolution instrument cup, added with water and an appropriate amount of water-soluble medium with different pH values (pH=1.2, 2.2, 4.0, 4.5, 5.5, 6.8), stirred at 37° C.±1° C. (rotation speed: 100 r/min) for dissolution (more than 6 hours) to form a […] solution, the saturated solution was filtered, the filtrate was diluted with a mobile phase by corresponding times, the concentration was measured by HPLC method, and the solubility was calculated.

[4] = Oil-water distribution coefficient log P (n-octanol-water) by HPLC retention time; details: HPLC retention time against standards of known log P
Text: The standard substance having known log P (n-octanol-water) was used, the log P (n-octanol-water) of the substance to be tested was detected by HPLC. The principle is based on the fact that the retention time of chemical substances in a long hydrocarbon chain chromatographic column such as C18 column is related to their hydrocarbon-water distribution coefficient. Hydrophilic substances are eluted first, lipophilic substances are eluted later, and the oil-water distribution coefficient and the retention time are in a linear relationship, and the equation is as follows: [formula] [formula] log P: oil-water partition coefficient of samples (n-octanol-water); T0: dead time (measured by uracil here); Tn: retention time of samples by HPLC; according to the above formula, a linear relationship formula can be established by detecting the retention time of the standard substance and the known log P (n-octanol-water). The theoretical value of log P is used as the ordinate, the log K value is used as the abscissa for drawing, the values of a and b are obtained through calculation, and then the retention time (namely the log K value in the table) of samples to be detected is substituted into the equation to calculate the log P (n-octanol-water) value of samples.

[5] = Water for injection, 37° C.±1° C.

Row | Angle of Repose [1] [°] | Weight Gain [2] [%] | Concentration [3, 5] [mg/mL] | Equilibrium Solubility [3, 5] [mg/250 ml] | Equilibrium Solubility ([3]; pH = 1.2, 37° C.±1° C.) [mg/250 ml] | Equilibrium Solubility ([3]; pH = 2.2, 37° C.±1° C.) [mg/250 ml] | Concentration ([3]; pH = 4.0, 37° C.±1° C.) [mg/mL] | Equilibrium Solubility ([3]; pH = 4.0, 37° C.±1° C.) [mg/250 ml] | Concentration ([3]; pH = 4.5, 37° C.±1° C.) [mg/mL] | Equilibrium Solubility ([3]; pH = 4.5, 37° C.±1° C.) [mg/250 ml] | Concentration ([3]; pH = 5.5, 37° C.±1° C.) [mg/mL] | Equilibrium Solubility ([3]; pH = 5.5, 37° C.±1° C.) [mg/250 ml] | Equilibrium Solubility ([3]; pH = 6.8, 37° C.±1° C.) [mg/250 ml] | log P (n-octanol-water) [4] | Concentration ([3]; pH = 1.2, 37° C.±1° C.) [mg/mL] | Concentration ([3]; pH = 2.2, 37° C.±1° C.) [mg/mL] | SMILES | Hygroscopicity [2] | other results
1 | 28 | 0.06 | 2.46 | 616.34 | 4908.73 | 1013.35 | 2.84 | 710.90 | 3.77 | 942.80 | 0.31 | 77.90 | 4.40 | 3.2 |  |  | Cc1cncc(CN2CCC(=C3c4ccccc4CC(=O)c4sccc43)CC2)c1.O=C(O)/C=C/C(=O)O [Crystalline form C, 4-[1-[(5-methylpyridin-3-yl)methyl]piperidyl-4-ylidene]-4,9-dihydro-10H-benzo[4,5]cycloheptyl[1,2-b]thiophen-10-one fumarate] | No or almost no hygroscopicity (the weight gain due to hygroscopicity is less than 0.2%) | Angle of Repose ([1]; listed as crystalline form C): less than 30 °; solubility according to the classification system of biopharmaceuticals ([3]; medium with pH=6.8): slightly superior to that of other crystal forms; Concentration ([3]; pH = 6.8, 37° C.±1° C.): 0.018 mg/mL; solubility thermodynamic ([3]; water-soluble medium of pH 1.2, 37 °C, pH 1.2, simulated gastric fluid, pH = 1.2, 37° C.±1° C.): 19600 µg/mL; solubility thermodynamic ([3]; water-soluble medium of pH 2.2, 37 °C, pH 2.2, aqueous buffer, pH = 2.2, 37° C.±1° C.): 4050 µg/mL
2 | 49 | 0.4 | 1.98 | 495.71 | 6117.84 | 849.73 | 2.53 | 633.71 | 3.43 | 856.32 |  | 76.85 | 3.61 | 2.7 | 24.47 | 3.40 | Cc1cncc(CN2CCC(=C3c4ccccc4CC(=O)c4sccc43)CC2)c1.O=C(O)/C=C/C(=O)O [Mixed crystal, 4-[1-[(5-methylpyridin-3-yl)methyl]piperidyl-4-ylidene]-4,9-dihydro-10H-benzo[4,5]cycloheptyl[1,2-b]thiophen-10-one fumarate] | Slightly hygroscopic (the weight gain due to hygroscopicity is less than 2% but not less than 0.2%) | 
3 | 47 | 0.3 | 1.79 | 448.75 | 6669.86 | 751.00 | 2.29 | 571.88 | 2.99 | 747.72 | 0.34 | 84.93 | 3.39 | 2.8 | 26.68 | 3.00 | Cc1cncc(CN2CCC(=C3c4ccccc4CC(=O)c4sccc43)CC2)c1.O=C(O)/C=C/C(=O)O [Crystalline form A, 4-[1-[(5-methylpyridin-3-yl)methyl]piperidyl-4-ylidene]-4,9-dihydro-10H-benzo[4,5]cycloheptyl[1,2-b]thiophen-10-one fumarate] | Slightly hygroscopic (the weight gain due to hygroscopicity is less than 2% but not less than 0.2%) | 
4 | 50 | 0.2 | 1.22 | 305.45 | 7355.56 | 659.74 | 1.41 | 352.76 | 1.36 | 339.48 |  | 44.97 | 2.56 |  | 29.42 | 2.64 | Cc1cncc(CN2CCC(=C3c4ccccc4CC(=O)c4sccc43)CC2)c1.O=C(O)/C=C/C(=O)O [Crystalline form B, 4-[1-[(5-methylpyridin-3-yl)methyl]piperidyl-4-ylidene]-4,9-dihydro-10H-benzo[4,5]cycloheptyl[1,2-b]thiophen-10-one fumarate] | Slightly hygroscopic (the weight gain due to hygroscopicity is less than 2% but not less than 0.2%) | solubility thermodynamic ([3]; water-soluble medium of pH 5.5, 37 °C, pH 5.5, aqueous buffer, pH = 5.5, 37° C.±1° C.): 180 µg/mL; solubility thermodynamic ([3]; water-soluble medium of pH 6.8, 37 °C, pH 6.8, aqueous buffer, pH = 6.8, 37° C.±1° C.): 10 µg/mL; chromatographic logP [4]: 2.9
